{"source": "patent US20240277890A1", "about": "“ANTIMICROBIAL ARTICLES COMPRISING POLYURETHANE” (Amicoat AS, priority 2021, published 2024)", "tested_on": "Propionibacterium acnes- antibiotic-resistant clinical isolate", "conditions": "P. acnes antibiotic-resistant"}
{"compound": "CCCCCCNC(=O)[C@H](CCCNC(=N)N)NC(=O)[C@H](Cc1c(C(C)(C)C)[nH]c2c(C(C)(C)C)cc(C(C)(C)C)cc12)NC(=O)[C@@H](N)CCCNC(=N)N", "note": "[Compound 8]", "values": [{"measurement": "MIC", "result": 2, "unit": "µg/mL"}]}
